Columns and labels:
Botrytis cinerea [1] = experiment: Botrytis cinerea (gray mold) mycelial radial growth on potato dextrose agar; assay type: cell-based; details: 168 h, 22° C., seven days, read-out: control compared to the untreated check
Description: The compounds were dissolved in 0.3% dimethyl sulfoxide and then added to potato dextrose agar medium just prior to dispensing it into petri dishes. 5 mL medium, with the compound in the desired concentration, was dispensed into 60 mm sterile petri-plates. After solidification, each plate was seeded with a 5 mm size mycelial disc taken from the periphery of an actively growing virulent culture plate. The plates were incubated in growth chambers at 22° C. temperature and 90% relative humidity for seven days and the radial growth was measured and compared to the one of the untreated control.

Parastagonospora nodorum = Parastagonospora nodorum (PARANO) spore growth inhibition in liquid medium, 96-well microtiter plate, OD 600; assay type: cell-based; details: spore suspension in PDB liquid medium, 18° C., 5-6 days, OD at 600, read-out: control compared to the untreated check
In short: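 Read-out is percent growth inhibition from OD at 600 after 5-6 days at 18° C. Compounds, dissolved in DMSO, were diluted in potato dextrose broth and combined in equal volume with a 10^5 spores/ml suspension of PARANO.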

Botrytis cinerea [2] = experiment: Botrytis cinerea liq. (BOTRCI) spore growth inhibition in liquid medium, 96-well microtiter plate, OD 405 nm; assay type: cell-based; details: spore suspension in YBA liquid medium, 22° C., 5-6 days, OD at 405 nm, read-out: control compared to the untreated check
Description: Yeast bacterial peptone and sodium acetate (YBA) liquid medium containing a BOTRCI (10^4 spores/ml) spore suspension was prepared. For the inhibition assay, each test compound was solved in dimethyl sulfoxide. 100 μl of the test compound in media-solution was added to a 96-well microtiter plate, consequently, the same volume (100 μl) of spore suspension was added to the well making the final test concentrations and the plate was incubated at 22° C. for 5-6 days. The growth inhibition was evaluated by measuring the OD at 405 nm. Percent inhibition was calculated with the below formula:
Where T=treatment, C=control, and B=blank

Colletotrichum capsici = Colletotrichum capsici (anthracnose) mycelial radial growth on potato dextrose agar; assay type: cell-based; details: Colletotrichum truncatum, 168 h, 25° C., seven days, read-out: control compared to the untreated check
In short: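 Compounds in 0.3% DMSO were mixed into potato dextrose agar, and each plate was seeded with a 5 mm mycelial disc from an actively growing culture. Plates were incubated at 25° C and 60% relative humidity for seven days. Radial growth was compared with untreated control.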

Pyricularia oryzae = experiment: microbe, parasite or virus in culture; assay type: cell-based; details: 168 h, read-out: control compared to the untreated check
Phytophthora infestans = experiment: microbe, parasite or virus in culture; assay type: cell-based; details: 168 h, read-out: control compared to the untreated check
Botrytis cinerea [3] = experiment: Botrytis cinerea test on tomato, preventive, greenhouse; assay type: in vivo; details: preventive spray on bean/chili plants (heading: tomato), inoculated one day after treatment, read-out: control (efficacy, disease severity) compared to the untreated check
Phakopsora pachyrhizi = Phakopsora pachyrhizi test on soybean, preventive, greenhouse; assay type: in vivo; details: preventive spray on soybean, inoculated one day after treatment, read-out: control (efficacy, disease severity) compared to the untreated check
In short: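 Preventive protocol: plants inoculated with a 2×10^5 P. pachyrhizi conidial suspension one day after spray application at the stated rate, then incubated at 22-24 °C and 80-90% RH. Compound was applied from 2% DMSO/acetone diluted in emulsified water.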

Venturia Inequalis = experiment: Venturia inequalis (VENTIN) spore growth inhibition in liquid medium, 96-well microtiter plate, OD 600; assay type: cell-based; details: spore suspension in PDB liquid medium, 18° C., 15-18 days, OD at 600, read-out: control compared to the untreated check
Description: Potato dextrose (PDB) liquid medium containing a VENTIN (10^5 spores/ml) spore suspension was prepared. For the inhibition assay, each test compound was solved in dimethyl sulfoxide. 100 μl of the test compound in media-solution was added to a 96-well microtiter plate, consequently, the same volume (100 μl) of spore suspension was added to the well making the final test concentrations and the treated plate was incubated at 18° C. for 15-18 days. The growth inhibition was evaluated by measuring the OD at 600. Percent inhibition was calculated with the below formula: […]

CN1CCOc2cc(C(=O)NC(C)(C)Cc3ccccc3)cnc21 [Compound 82, 4-methyl-N-(2-methyl-1-phenylpropan-2-yl)-3,4-dihydro-2H-pyrido[3,2-b] [1,4]oxazine-7-carboxamide]
≥ 70%: inhibition of growth at 300 ppm (Botrytis cinerea [1]) | inhibition of growth at 300 ppm (Parastagonospora nodorum) | inhibition of growth at 300 ppm (Botrytis cinerea [2])

Cn1ccc2cc(C(=O)NC(C)(C)COCc3ccccc3F)cnc21 [Compound 187, N-(1-((2-fluorobenzyl)oxy)-2-methylpropan-2-yl)-1-methyl-1H-pyrrolo[2,3-b]pyridine-5-carboxamide]
≥ 70%: inhibition of growth at 300 ppm (Botrytis cinerea [1]) | inhibition of growth at 300 ppm (Colletotrichum capsici) | inhibition of growth at 300 ppm (Parastagonospora nodorum) | inhibition of growth at 300 ppm (Botrytis cinerea [2])

CC(C)CC(C)(Cc1ccccc1)NC(=O)c1cnc2[nH]c(=O)oc2c1 (stereo not drawn) [Compound 98, N-(2,4-dimethyl-1-phenylpentan-2-yl)-2-oxo-2,3-dihydrooxazolo[4,5-b] pyridine-6-carboxamide]
≥ 70%: inhibition of growth at 300 ppm (Pyricularia oryzae) | inhibition of growth at 300 ppm (Botrytis cinerea [1]) | inhibition of growth at 300 ppm (Phytophthora infestans) | inhibition of growth at 300 ppm (Botrytis cinerea [2]) | pest or weed control at 500 ppm (Botrytis cinerea [3])

Cn1cc(Br)c2cc(C(=O)NC(C)(C)COCc3ccccc3F)cnc21 [Compound 194, 3-bromo-N-(1-((2-fluorobenzyl)oxy)-2-methylpropan-2-yl)-1-methyl-1H-pyrrolo[2,3-b]pyridine-5-carboxamide]
≥ 70%: inhibition of growth at 300 ppm (Botrytis cinerea [1]) | inhibition of growth at 300 ppm (Botrytis cinerea [2])

CC(C)(COCc1ccccc1F)NC(=O)c1cnc2c(c1)CCC2 [Compound 190, N-(1-((2-fluorobenzyl)oxy)-2-methylpropan-2-yl)-6,7-dihydro-5H-cyclopenta[b]pyridine-3-carboxamide]
≥ 70%: inhibition of growth at 300 ppm (Botrytis cinerea [1]) | inhibition of growth at 300 ppm (Colletotrichum capsici) | inhibition of growth at 300 ppm (Parastagonospora nodorum) | inhibition of growth at 300 ppm (Botrytis cinerea [2])

COc1nc2[nH]ccc2cc1C(=O)NC(C)(Cc1ccccc1)CC(C)C (stereo not drawn) [Compound 89, N-(2,4-dimethyl-1-phenylpentan-2-yl)-6-methoxy-1H-pyrrolo[2,3-b]pyridine-5-carboxamide]
≥ 70%: inhibition of growth at 300 ppm (Botrytis cinerea [1]) | inhibition of growth at 300 ppm (Botrytis cinerea [2]) | pest or weed control at 500 ppm (Phakopsora pachyrhizi)

Cc1ccccc1C(=O)OCC(C)(C)NC(=O)c1cnc2c(c1)CCC2 [Compound 149, 2-(6,7-dihydro-5H-cyclopenta[b]pyridine-3-carboxamido)-2-methylpropyl 2-methylbenzoate]
≥ 70%: inhibition of growth at 300 ppm (Botrytis cinerea [1]) | inhibition of growth at 300 ppm (Parastagonospora nodorum) | inhibition of growth at 300 ppm (Botrytis cinerea [2])

COc1nc2c(cc1C(=O)NC1(c3ccccc3)CC1)CCC2 [Compound 252, 2-methoxy-N-(1-phenylcyclopropyl)-6,7-dihydro-5H-cyclopenta[b]pyridine-3-carboxamide]
≥ 70%: inhibition of growth at 300 ppm (Botrytis cinerea [1]) | inhibition of growth at 300 ppm (Colletotrichum capsici) | inhibition of growth at 300 ppm (Phytophthora infestans) | inhibition of growth at 300 ppm (Parastagonospora nodorum) | inhibition of growth at 300 ppm (Botrytis cinerea [2])

COc1ccccc1CC(C)(C)NC(=O)c1cnc2c(c1)c(F)cn2C [Compound 72, 3-fluoro-N-(1-(2-methoxyphenyl)-2-methylpropan-2-yl)-1-methyl-1H-pyrrolo[2,3-b]pyridine-5-carboxamide]
≥ 70%: inhibition of growth at 300 ppm (Botrytis cinerea [1]) | inhibition of growth at 300 ppm (Botrytis cinerea [2])

CC(C)CC(C)(Cc1ccccc1)NC(=O)c1cnc2c(c1)c(C1CC1)cn2C (stereo not drawn) [Compound 55, 3-cyclopropyl-N-(2,4-dimethyl-1-phenylpentan-2-yl)-1-methyl-1H-pyrrolo[2,3-b]pyridine-5-carboxamide]
≥ 70%: inhibition of growth at 300 ppm (Botrytis cinerea [1]) | inhibition of growth at 300 ppm (Botrytis cinerea [2]) | pest or weed control at 500 ppm (Botrytis cinerea [3])

Cc1cc2cc(C(=O)NC(C)(C)C(C)(C)c3ccccc3)cnc2n1C [Compound 100, N-(2,3-dimethyl-3-phenylbutan-2-yl)-1,2-dimethyl-1H-pyrrolo[2,3-b]pyridine-5-carboxamide]
≥ 70%: inhibition of growth at 300 ppm (Pyricularia oryzae) | inhibition of growth at 300 ppm (Botrytis cinerea [1]) | inhibition of growth at 300 ppm (Parastagonospora nodorum) | inhibition of growth at 300 ppm (Botrytis cinerea [2]) | pest or weed control at 500 ppm (Botrytis cinerea [3])

CC(C)(COC(=O)c1ccccc1C(F)(F)F)NC(=O)c1cnc2ccsc2c1 [Compound 161, 2-methyl-2-(thieno[3,2-b]pyridine-6-carboxamido)propyl 2-(trifluoromethyl)benzoate]
≥ 70%: inhibition of growth at 300 ppm (Pyricularia oryzae) | inhibition of growth at 300 ppm (Venturia Inequalis)

CC(C)(C#N)NC(=O)c1cnc2ccsc2c1 [Compound 106, N-(2-cyanopropan-2-yl)thieno[3,2-b] pyridine-6-carboxamide]
≥ 70%: inhibition of growth at 300 ppm (Botrytis cinerea [1]) | inhibition of growth at 300 ppm (Parastagonospora nodorum) | inhibition of growth at 300 ppm (Botrytis cinerea [2]) | pest or weed control at 500 ppm (Botrytis cinerea [3]) | pest or weed control at 500 ppm (Phakopsora pachyrhizi)

CON(C(=O)c1cc2c(nc1Cl)CCC2)C(C)Cc1ccccc1F (stereo not drawn) [Compound 254, 2-chloro-N-(1-(2-fluorophenyl)propan-2-yl)-N-methoxy-6,7-dihydro-5H-cyclopenta[b]pyridine-3-carboxamide]
≥ 70%: inhibition of growth at 300 ppm (Pyricularia oryzae) | inhibition of growth at 300 ppm (Botrytis cinerea [1]) | inhibition of growth at 300 ppm (Parastagonospora nodorum) | inhibition of growth at 300 ppm (Botrytis cinerea [2])

CC(C)(COCc1ccccc1F)NC(=O)c1cnc2ccsc2c1 [Compound 189]
≥ 70%: inhibition of growth at 300 ppm (Pyricularia oryzae) | inhibition of growth at 300 ppm (Botrytis cinerea [1]) | inhibition of growth at 300 ppm (Botrytis cinerea [2])

CC(C)(COC(=O)c1cccc(F)c1)NC(=O)c1cnc2[nH]ccc2c1 [Compound 146, 2-methyl-2-(1H-pyrrolo[2,3-b]pyridine-5-carboxamido)propyl 3-fluorobenzoate]
≥ 70%: inhibition of growth at 300 ppm (Phytophthora infestans) | inhibition of growth at 300 ppm (Venturia Inequalis) | pest or weed control at 500 ppm (Phakopsora pachyrhizi)

Cn1ccc2cc(C(=O)NC(C)(C)COC(=O)c3ccccc3C(F)(F)F)cnc21 [Compound 167, 2-methyl-2-(1-methyl-1H-pyrrolo[2,3-b]pyridine-5-carboxamido)propyl 2-(trifluoromethyl)benzoate]
≥ 70%: inhibition of growth at 300 ppm (Venturia Inequalis)

Cn1ccc2cc(C(=O)NC3(C)Cc4ccccc4C3)cnc21 [Compound 78, 1-methyl-N-(2-methyl-2,3-dihydro-1H-inden-2-yl)-1H-pyrrolo[2,3-b] pyridine-5-carboxamide]
≥ 70%: inhibition of growth at 300 ppm (Botrytis cinerea [1]) | inhibition of growth at 300 ppm (Parastagonospora nodorum) | inhibition of growth at 300 ppm (Botrytis cinerea [2])

CC(C)(NC(=O)c1cnc2ccsc2c1)C(O)Cc1ccccc1 (stereo not drawn) [Compound 105, N-(3-hydroxy-2-methyl-4-phenylbutan-2-yl)thieno[3,2-b] pyridine-6-carboxamide]
≥ 70%: inhibition of growth at 300 ppm (Botrytis cinerea [1]) | inhibition of growth at 300 ppm (Phytophthora infestans) | inhibition of growth at 300 ppm (Parastagonospora nodorum) | inhibition of growth at 300 ppm (Botrytis cinerea [2])

COc1ccccc1CC(C)(C)NC(=O)c1cnc2c(ccn2C)c1 [Compound 49, N-(1-(2-methoxyphenyl)-2-methylpropan-2-yl)-1-methyl-1H-pyrrolo[2,3-b]pyridine-5-carboxamide]
≥ 70%: inhibition of growth at 300 ppm (Venturia Inequalis) | pest or weed control at 500 ppm (Phakopsora pachyrhizi)
